{"source": "patent US20220241055A1", "about": "“DENTAL IMPLANT WITH ANTIBACTERIAL/ ANTIMICROBIAL PROPERTY HAVING METAL-ORGANIC FRAMEWORK (MOF) STRUCTURE AND PRODUCTION METHOD THEREOF” (RECEP TAYYIP ERDOGAN UNIVERSITESI, priority 2019, published 2022)", "origin": "cited, not measured here", "conditions": "conditions similar to body medium (SBF, 37° C.), stored in metal-organic framework structures"}
{"smiles": "CC(C)Cc1ccc(C(C)C(=O)O)cc1", "note": "(stereo not shown) [ibuprofen]", "values": [{"measurement": "duration of release of the stored drug", "value": 6, "unit": "days"}]}
